# Measurements published in PubChem BioAssay (NCI).
#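 96-well plates; 48 h exposure; 5 concentrations. Endpoints by linear interpolation between flanking doses. Not reached: highest tested concentration assigned. The concentration for 50% growth inhibition is given as GI50. TGI: total growth inhibition.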
# Assays:
# Assay in all cases: NCI-60 cell line screen, 48 h
# A549 NSCLC = system: A549 NSCLC
# SK-MEL-28 melanoma = system: SK-MEL-28 melanoma
# ACHN renal = system: ACHN renal
# CCRF-CEM leukemia = system: CCRF-CEM leukemia
# SK-MEL-5 melanoma = system: SK-MEL-5 melanoma
# SN12C renal = system: SN12C renal
# HOP-92 NSCLC = system: HOP-92 NSCLC
# SNB-75 CNS = system: SNB-75 CNS
# COLO 205 colon = system: COLO 205 colon
# CAKI-1 renal = system: CAKI-1 renal
# SF-539 CNS = system: SF-539 CNS
# RXF 393 renal = system: RXF 393 renal
# SK-MEL-2 melanoma = system: SK-MEL-2 melanoma
# SF-268 CNS = system: SF-268 CNS
# HCT-15 colon = system: HCT-15 colon
# K-562 leukemia = system: K-562 leukemia
# IGROV1 ovarian = system: IGROV1 ovarian
# MDA-MB-231 breast = system: MDA-MB-231 breast
# KM12 colon = system: KM12 colon
# HL-60(TB) leukemia = system: HL-60(TB) leukemia
# HCC-2998 colon = system: HCC-2998 colon
# M14 melanoma = system: M14 melanoma
# OVCAR-4 ovarian = system: OVCAR-4 ovarian
# DU-145 prostate = system: DU-145 prostate
# HOP-62 NSCLC = system: HOP-62 NSCLC
# HCT-116 colon = system: HCT-116 colon
# NCI-H226 lung = system: NCI-H226 lung
# EKVX NSCLC = system: EKVX NSCLC
# BT-549 breast = system: BT-549 breast
compound,measurement,setting,value
Cc1cc(C(NC(=O)CCCCCNc2cccc3c2C(=O)N(C2CCC(=O)NC2=O)C3=O)c2cccnc2)c(O)c2ncccc12 (stereo unspecified),GI50,A549 NSCLC,734 nM
same,TGI,A549 NSCLC,28000 nM
same,GI50,SK-MEL-28 melanoma,904 nM
same,TGI,SK-MEL-28 melanoma,> 74900 nM
same,GI50,ACHN renal,3580 nM
same,TGI,ACHN renal,> 59500 nM
same,GI50,CCRF-CEM leukemia,< 10 nM
same,TGI,CCRF-CEM leukemia,> 100000 nM
same,GI50,SK-MEL-5 melanoma,52.5 nM
same,TGI,SK-MEL-5 melanoma,999 nM
same,GI50,SN12C renal,50.1 nM
same,GI50,HOP-92 NSCLC,< 12.1 nM
same,TGI,HOP-92 NSCLC,304 nM
same,GI50,SNB-75 CNS,20.8 nM
same,TGI,SNB-75 CNS,5320 nM
same,GI50,COLO 205 colon,28.8 nM
same,TGI,COLO 205 colon,1670 nM
same,GI50,CAKI-1 renal,471 nM
same,TGI,CAKI-1 renal,16700 nM
same,GI50,SF-539 CNS,933 nM
same,TGI,SF-539 CNS,8950 nM
same,GI50,RXF 393 renal,221 nM
same,TGI,RXF 393 renal,2280 nM
same,GI50,SK-MEL-2 melanoma,485 nM
same,TGI,SK-MEL-2 melanoma,11400 nM
same,GI50,SF-268 CNS,112 nM
same,TGI,SF-268 CNS,18800 nM
same,GI50,HCT-15 colon,228 nM
same,TGI,HCT-15 colon,> 100000 nM
same,GI50,K-562 leukemia,1210 nM
same,TGI,K-562 leukemia,> 100000 nM
same,GI50,IGROV1 ovarian,27.2 nM
same,TGI,IGROV1 ovarian,3800 nM
same,GI50,MDA-MB-231 breast,13.6 nM
same,TGI,MDA-MB-231 breast,193 nM
same,GI50,KM12 colon,199 nM
same,TGI,KM12 colon,21300 nM
same,GI50,HL-60(TB) leukemia,< 13.4 nM
same,TGI,HL-60(TB) leukemia,35.5 nM
same,GI50,HCC-2998 colon,26.4 nM
same,TGI,HCC-2998 colon,2450 nM
same,GI50,M14 melanoma,100 nM
same,TGI,M14 melanoma,4990 nM
same,GI50,OVCAR-4 ovarian,22.1 nM
same,TGI,OVCAR-4 ovarian,325 nM
same,GI50,DU-145 prostate,1920 nM
same,TGI,DU-145 prostate,> 100000 nM
same,GI50,HOP-62 NSCLC,21.4 nM
same,TGI,HOP-62 NSCLC,685 nM
same,GI50,HCT-116 colon,1520 nM
same,TGI,HCT-116 colon,> 100000 nM
same,GI50,NCI-H226 lung,32.4 nM
same,TGI,NCI-H226 lung,961 nM
same,GI50,EKVX NSCLC,809 nM
same,TGI,EKVX NSCLC,> 22500 nM
same,GI50,BT-549 breast,< 12.8 nM
